Results reported in US12441723B2, “Pyrazole compounds, formulations thereof, and a method for using the compounds and/or formulations” (Rigel Pharmaceuticals, Inc., priority 2019, dated 2025).
Counter-ions that a name gives are not always drawn.

Experiments:
Format in all cases: physicochemical
[1] = Modulated DSC glass transition temperature; conditions: mDSC, reversing heat flow versus temperature
Method: FIG. 5 is a modulated DSC (mDSC) plot of reversing heat flow versus temperature, illustrating the heat flow for one embodiment of the spray-dried formulation and showing that the glass transition temperature (Tg) for that embodiment is 108.3° C.
FIG. 10 is an mDSC plot of reversing heat flow versus temperature, illustrating the heat flow for a […] sample of compound I-1, and showing that the glass transition temperature (Tg) for the […] sample is 106.1° C.

[2] = DVS isotherm, spray-dried formulation versus crystalline compound I-1; conditions: DVS at 25° C.; crystalline compound I-1 compared with the spray-dried dispersion
Method: FIG. 1 is a dynamic vapor sorption (DVS) plot of percent change in mass versus target relative humidity (RH), illustrating the change in mass of one embodiment of the disclosed spray-dried formulation at 25° C. under various relative humidity conditions. The plot provides two isotherms: 1 is the sorption plot, illustrating the change in mass with increasing relative humidity steps; and 2 is the desorption plot, illustrating the change in mass with decreasing relative humidity steps.
FIG. 6 is a DVS plot of percent change in mass versus target relative humidity, illustrating the change in mass of one embodiment of a crystalline sample of compound I-1 at 25° C. under various relative humidity conditions. The plot provides two isotherms: 1 is the sorption plot, illustrating the change in mass with increasing relative humidity steps; and 2 is the desorption plot, illustrating the change in mass with decreasing relative humidity steps.
FIGS. 1-10 provide structural and stability data concerning the spray-dried formulation (FIGS. 1-5) and a crystalline sample of compound I-1 (FIGS. 6-10). FIGS. 1 and 6 provide DVS isotherm plots for the spray-dried formulation and crystalline compound, respectively.

[3] = Hygroscopicity evaluation by DVS of salts of I-18; conditions: 25° C., judged from uptake at 80% RH
Method: To investigate the solid form stability as a function of humidity, DVS isotherm plot of the K salt, Arginine salt, Choline salt and Tris salt were collected at 25° C. between 0 and 95% RH.

[4] = Physical and chemical stability of salts of I-18, 1 week (XRPD, HPLC purity); conditions: for Area (%) of HPLC peak RRT 1.00: main peak; for Area (%) of HPLC peak RRT 1.17: peak = parent compound formed by hydrolysis; for Form change: XRPD
Method: The physical and chemical stability of the K salt, Arginine salt, Choline salt and Tris salt were evaluated under conditions of 25° C./60% RH and 40° C./75% RH for 1 week. Each sample was added into 3 mL glass vials, sealed by parafilm with several holes, and kept under tested condition. After one week, samples was taken for XRPD and HPLC purity test.

[5] = 25° C./60% RH, 1 week, listed as arginine salt
[6] = 40° C./75% RH, 1 week, listed as arginine salt
[7] = Initial, listed as arginine salt

CCO[C@H]1CC[C@H](n2cc(NC(=O)c3csc(-c4cn[nH]c4)n3)c(-c3nc(F)ccc3F)n2)CC1 [I-1, N-(3-(3,6-difluoropyridin-2-yl)-1-((1r,4r)-4-ethoxycyclohexyl)-1H-pyrazol-4-yl)-2-(1H-pyrazol-4-yl)thiazole-4-carboxamide]
glass transition temperature (Tg) [1]: 106.1 °C | change in mass when exposed to higher relative humidity [2]: substantially smaller change in mass

CCO[C@H]1CC[C@H](n2cc(NC(=O)c3csc(-c4cnn(C(C)OP(=O)(O)O)c4)n3)c(-c3nc(F)ccc3F)n2)CC1 (some centres unmarked) [I-110, 1-(4-(4-((3-(3,6-difluoropyridin-2-yl)-1-((1r,4r)-4-ethoxycyclohexyl)-1H-pyrazol-4-yl)carbamoyl)thiazol-2-yl)-1H-pyrazol-1-yl)ethyl dihydrogen phosphate arginine salt]
hygroscopicity [3]: slight hygroscopic | Area (%) of HPLC peak RRT 1.13 ([4]; 25° C./60% RH, 1 week): 0.06% | Area (%) of HPLC peak RRT 0.77 [4, 5]: 0.03% | Area (%) of HPLC peak RRT 1.35 [4, 5]: 0.06% | Area (%) of HPLC peak RRT 1.45 [4, 5]: 0.50% | Area (%) of HPLC peak RRT 1.71 [4, 5]: 0.74% | Area (%) of HPLC peak RRT 1.73 [4, 5]: 0.61% | HPLC purity change [4, 5]: slight purity decrease | Area (%) of HPLC peak RRT 1.00 [4, 5]: 95.31% | Area (%) of HPLC peak RRT 1.17 [4, 5]: 2.68% | Form change ([4]; 25° C./60% RH/1 week, listed as Arginine salt): no form change and No | Area (%) of HPLC peak RRT 1.13 ([4]; 40° C./75% RH, 1 week): 0.06% | Area (%) of HPLC peak RRT 0.77 [4, 6]: 0.04% | Area (%) of HPLC peak RRT 1.35 [4, 6]: 0.11% | Area (%) of HPLC peak RRT 1.45 [4, 6]: 0.47% | Area (%) of HPLC peak RRT 1.71 [4, 6]: 0.73% | Area (%) of HPLC peak RRT 1.73 [4, 6]: 0.60% | HPLC purity change [4, 6]: slight purity decrease | Area (%) of HPLC peak RRT 1.00 [4, 6]: 95.50% | Area (%) of HPLC peak RRT 1.17 [4, 6]: 2.48% | Form change ([4]; 40° C./75% RH/1 week, listed as Arginine salt): no form change and No | Initial purity (area %) ([4]; HPLC, before storage, listed as Arginine salt): 95.91 area % | Area (%) of HPLC peak RRT 1.35 ([4]; Initial): <0.03% | Area (%) of HPLC peak RRT 0.77 [4, 7]: <0.03% | Area (%) of HPLC peak RRT 1.13 [4, 7]: <0.03% | Area (%) of HPLC peak RRT 1.45 [4, 7]: 0.44% | Area (%) of HPLC peak RRT 1.71 [4, 7]: 0.73% | Area (%) of HPLC peak RRT 1.73 [4, 7]: <0.53% | Area (%) of HPLC peak RRT 1.00 [4, 7]: 95.91% | Area (%) of HPLC peak RRT 1.17 [4, 7]: 2.39%
